According to patent publication US20240408062A1 (Purdue Research Foundation, priority 2022, published 2024):

biological target: SARS-CoV-2 3CLpro (Severe acute respiratory syndrome coronavirus 2, UniProt P0DTD1); test: Inhibition of SARS-CoV-2 3CLpro, continuous fluorescence assay with FRET-based substrate UIVT3; type: biochemical; settings: FRET substrate UIVT3, 50-200 nM enzyme, pH 7.5, 25° C.
Experimental: Kinetic assays were performed in Costar 3694 EIA/RIA 96-well half-area, flat bottom, black polystyrene plates (Corning, Corning, NY) at 25° C. The increase in fluorescence intensity was measured at an emission wavelength of 528 nm (20 nm bandwidth) using an excitation wavelength of 485 (bandwidth 20 nm) using a CLARIOstar Plate Reader (BMG Labtech, Cary, NC). The initial rates of the reactions were determined from the slopes of the Relative Fluorescence Units (RFU) versus time (RFU min^−1). Inhibition data were collected and analyzed as described previously.

| Compound | Activity of SARS-CoV-2 Mpro inhibitors |
| --- | --- |
| CC(C)C[C@@H](C(=O)N[C@@H](C[C@@H]1CCNC1=O)C(=O)C(=O)c1ccccc1)N(C)C(=O)[C@@H](NC(=O)C(F)(F)F)C(C)(C)C [Compound 2] | A+ (A+ < 10 μM) |
| CC(C)C[C@H](CC(=O)[C@@H](NC(=O)C(F)(F)F)C(C)(C)C)C(=O)N[C@@H](C[C@@H]1CCNC1=O)C(=O)C(=O)c1ccccc1 [Compound 4] | A++ (A++ < 1 μM) |
| CN(C(=O)[C@@H](NC(=O)C(F)(F)F)C(C)(C)C)[C@H](CC1CCCC1)C(=O)NC(C[C@@H]1CCNC1=O)C(=O)C(=O)c1ccccc1 (some centres unmarked) [Compound 3] | A+ (A+ < 10 μM) |
| COc1cccc2[nH]c(C(=O)N[C@@H](CC(C)C)C(=O)N[C@@H](C[C@@H]3CCNC3=O)C(=O)C(=O)c3ccccc3)cc12 [Compound 1] | A++ (A++ < 1 μM) |
| CC(C)C[C@@H](C(=O)N[C@@H](CC1CCCNC1=O)C(=O)C(=O)c1ccccc1)N(C)C(=O)[C@@H](NC(=O)C(F)(F)F)C(C)(C)C (some centres unmarked) [Compound 5] | A++ (A++ < 1 μM) |
